Measured values reported in patent publication US20240150377A1, “MODULATORS OF CYSTIC FIBROSIS TRANSMEMBRANE CONDUCTANCE REGULATOR” (VERTEX PHARMACEUTICALS INCORPORATED, priority 2020, published 2024).
Where two headings read alike, the source gives them in different places. Each block holds one compound with its values, some of them ahead of it.

Legend:
CFTR [1] = target: T1, CFTR (Homo sapiens, UniProt P13569, DEL508-508); assay: HBE assay: Ussing chamber assay of CFTR-mediated short-circuit currents; assay type: cell-based; conditions: for activation at 10 µM: read-out: HBE Activity at 10 μM (%); for Emax: read-out: HBE Max activity (%)
T1 construct: endogenous in cells; host or cells: primary human bronchial epithelial cells from CF subjects (F508del/MF-HBE), differentiated at air-liquid interface
Method in brief: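 CFTR-mediated Isc (μA/cm²) equals the peak response to apical 20 μM forskolin minus the residual after a 20 μM each BPO/GlyH-101/CFTR inhibitor 172 cocktail, recorded in Ussing chambers at Vhold 0 mV, 37 °C, pH 7.4, with 30 μM apical amiloride. Cells were F508del/MF HBE cultures preincubated 18-24 h with corrector (concentration range or 10 μM) plus 1 μM ivacaftor in 20% human serum.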

CFTR [2] = target: T1, CFTR; assay: HBE2 assay: Ussing chamber assay of CFTR-mediated short-circuit currents; assay type: cell-based; conditions: F508del/MF-HBE cells, with 44 nM potentiator, 18-24 hours, 20% human serum; for Emax: read-out: HBE2 Max activity (%)
Method in brief: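 Corrector activity read as CFTR-dependent ISC (μA/cm^2): peak forskolin current minus post-inhibitor steady state. Measured at 37 °C, voltage clamp at 0 mV, on F508del/MF-HBE epithelia grown >14 days air-liquid interface in Ussing chambers.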

T1 sequence (P13569 with tags, fused parts or gaps DEL508-508): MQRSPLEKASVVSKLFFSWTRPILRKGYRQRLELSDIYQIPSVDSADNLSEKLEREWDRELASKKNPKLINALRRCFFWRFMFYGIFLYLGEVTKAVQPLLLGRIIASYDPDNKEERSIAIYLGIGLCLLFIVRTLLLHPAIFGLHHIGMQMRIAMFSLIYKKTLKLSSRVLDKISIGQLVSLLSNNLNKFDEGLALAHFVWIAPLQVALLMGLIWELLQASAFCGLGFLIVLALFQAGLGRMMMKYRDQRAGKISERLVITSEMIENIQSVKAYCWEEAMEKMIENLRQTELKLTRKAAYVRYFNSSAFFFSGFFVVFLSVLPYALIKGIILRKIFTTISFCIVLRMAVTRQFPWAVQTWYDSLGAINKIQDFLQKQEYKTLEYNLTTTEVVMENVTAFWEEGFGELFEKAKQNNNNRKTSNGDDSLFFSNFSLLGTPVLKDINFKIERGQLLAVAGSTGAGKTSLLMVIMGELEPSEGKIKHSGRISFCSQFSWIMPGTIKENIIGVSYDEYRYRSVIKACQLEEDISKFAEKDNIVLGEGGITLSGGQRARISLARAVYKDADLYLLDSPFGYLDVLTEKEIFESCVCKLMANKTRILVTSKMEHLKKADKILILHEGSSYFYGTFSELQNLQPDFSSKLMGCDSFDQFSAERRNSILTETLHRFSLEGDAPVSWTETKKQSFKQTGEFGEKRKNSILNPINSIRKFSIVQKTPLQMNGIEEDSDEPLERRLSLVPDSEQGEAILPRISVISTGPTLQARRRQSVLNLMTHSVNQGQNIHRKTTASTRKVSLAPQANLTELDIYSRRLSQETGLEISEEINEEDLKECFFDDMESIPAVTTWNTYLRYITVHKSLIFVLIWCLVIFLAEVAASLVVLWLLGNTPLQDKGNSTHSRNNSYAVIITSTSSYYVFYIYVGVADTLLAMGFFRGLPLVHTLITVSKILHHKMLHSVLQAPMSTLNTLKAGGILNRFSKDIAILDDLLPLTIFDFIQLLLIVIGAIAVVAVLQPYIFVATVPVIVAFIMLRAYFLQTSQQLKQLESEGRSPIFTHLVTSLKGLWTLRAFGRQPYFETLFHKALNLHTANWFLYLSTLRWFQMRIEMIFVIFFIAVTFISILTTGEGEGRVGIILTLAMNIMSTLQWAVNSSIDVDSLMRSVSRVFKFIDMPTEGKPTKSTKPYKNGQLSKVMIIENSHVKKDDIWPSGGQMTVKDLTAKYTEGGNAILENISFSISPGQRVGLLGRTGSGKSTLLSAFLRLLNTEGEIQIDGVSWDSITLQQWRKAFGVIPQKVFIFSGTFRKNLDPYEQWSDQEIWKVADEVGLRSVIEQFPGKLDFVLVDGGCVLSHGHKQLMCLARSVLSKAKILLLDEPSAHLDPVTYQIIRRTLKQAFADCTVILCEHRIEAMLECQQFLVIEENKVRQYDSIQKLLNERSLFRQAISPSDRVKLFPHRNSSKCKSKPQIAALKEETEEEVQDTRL

Compound: Cc1cccc(C)c1-c1cc2nc(n1)NS(=O)(=O)c1cccc(c1)C(=O)N(Cc1ccc3cc(C4CC4)n(C)c3n1)[C@H](CC(C)(C)C)CO2 [Compound 1304, (11R)-12-[(2-Cyclopropyl-1-methyl-pyrrolo[2,3-b]pyridin-6-yl)methyl]-6-(2,6-dimethylphenyl)-11-(2,2-dimethylpropyl)-2,2-dioxo-9-oxa-2λ^6-thia-3,5,12,19-tetrazatricyclo[12.3.1.14,8]nonadeca-1(18),4(19),5,7,14,16-hexaen-13-one]
activation at 10 µM (CFTR [1]; HBE assay, 10 μM): > 60% | HBE2 Activity at 3 μM (%) (CFTR [2]; 3 μM): +++ (+++ is >60+)

Compound: Cc1cccc(C)c1-c1cc2nc(n1)NS(=O)(=O)c1cccc(c1)C(=O)N(Cc1ccnc(N(C)C3CC4(CC4)C3)n1)[C@H](CC(C)(C)C)CO2 [Compound 1448]
activation at 10 µM (CFTR [1]; HBE assay, 10 μM): > 60% | EC50 (CFTR [2]): < 1 µM | Emax (CFTR [2]): > 60%

Compound: Cc1cccc(C)c1-c1cc2nc(n1)NS(=O)(=O)c1cccc(c1)C(=O)N(Cc1cncc(N3CCC[C@H]3C3CC3)n1)[C@H](CC(C)(C)C)CO2 [Compound 1495]
EC50 (CFTR [1]; HBE EC50 (μM), HBE assay): < 1 µM | Emax (CFTR [1]): > 60% | HBE2 Activity at 3 μM (%) (CFTR [2]; 3 μM): +++ (+++ is >60+)

Compound: CC[C@@H]1CCCN1c1cncc(CN2C(=O)c3cccc(c3)S(=O)(=O)Nc3nc(cc(-c4c(C)cccc4C)n3)OC[C@H]2CC(C)(C)C)n1 [Compound 1496]
EC50 (CFTR [1]; HBE assay, read-out: HBE EC50): < 1 µM | Emax (CFTR [1]; HBE assay): > 60% | HBE2 Activity at 3 μM (%) (CFTR [2]; 3 μM): +++ (+++ is >60+)

Compound: Cc1cccc(C)c1-c1cc2nc(n1)NS(=O)(=O)c1cccc(c1)C(=O)N(Cc1cncc(N3CCCC[C@H]3C)n1)[C@H](CC(C)(C)C)CO2 [Compound 1506]
activation at 10 µM (CFTR [1]): > 60% | EC50 (CFTR [2]): < 1 µM | Emax (CFTR [2]): > 60%

Compound: Cc1cccc(C)c1-c1cc2nc(n1)NS(=O)(=O)c1cccc(c1)C(=O)N(Cc1cncc(N3CC[C@H]3C)n1)[C@H](CC(C)(C)C)CO2 [Compound 1512]
activation at 10 µM (CFTR [1]): > 60% | EC50 (CFTR [2]): < 1 µM | Emax (CFTR [2]): > 60%

Compound: Cc1cccc(C)c1-c1cc2nc(n1)NS(=O)(=O)c1cccc(c1)C(=O)N(Cc1ncc(N3CC(C)(C)C3)cn1)[C@H](CC(C)(C)C(F)(F)F)CO2 [Compound 1520]
activation at 10 µM (CFTR [1]; HBE assay, 10 μM): > 60% | HBE2 Activity at 3 μM (%) (CFTR [2]; 3 μM): +++ (+++ is >60+)

Compound: CCCOc1cnc(CN2C(=O)c3cccc(c3)S(=O)(=O)Nc3nc(cc(-c4c(C)cccc4C)n3)OC[C@H]2CC2CCC2)nc1 [Compound 1522]
activation at 10 µM (CFTR [1]; HBE assay, 10 μM): > 60% | HBE2 Activity at 3 μM (%) (CFTR [2]; 3 μM): +++ (+++ is >60+) | EC50 (CFTR [2]): < 1 µM | Emax (CFTR [2]): > 60%

Compound: Cc1cccc(C)c1-c1cc2nc(n1)NS(=O)(=O)c1cccc(c1)C(=O)N(Cc1ncc(N3CC(C)(C)C3)cn1)[C@H](CC1(C(F)(F)F)CC1)CO2 [Compound 1529]
activation at 10 µM (CFTR [1]; HBE assay, 10 μM): > 60% | HBE2 Activity at 3 μM (%) (CFTR [2]; 3 μM): +++ (+++ is >60+)

Compound: CC[C@H](C)Oc1cnc(CN2C(=O)c3cccc(c3)S(=O)(=O)Nc3nc(cc(-c4c(C)cccc4C)n3)OC[C@H]2CC2(C)CC2)nc1 [Compound 1546]
activation at 10 µM (CFTR [1]; HBE assay, 10 μM): > 60% | HBE2 Activity at 3 μM (%) (CFTR [2]; 3 μM): +++ (+++ is >60+)

Compound: Cc1cccc(C)c1-c1cc2nc(n1)NS(=O)(=O)c1cccc(c1)C(=O)N(Cc1cncc(N(C)C3CCCC3)n1)[C@H](COC(C)C)CO2 [Compound 1948]
HBE2 Activity at 3 μM (%) (CFTR [2]; 3 μM corrector): +++ (+++ is >60+)

Compound: Cc1cccc(C)c1-c1cc2nc(n1)NS(=O)(=O)c1cccc(c1)C(=O)N(Cc1cncc(N(C)C3CC4(CC4)C3)n1)[C@H](COC(C)C)CO2 [Compound 1949]
HBE2 Activity at 3 μM (%) (CFTR [2]; 3 μM corrector): +++ (+++ is >60+)

Compound: Cc1cccc(C)c1-c1cc2nc(n1)NS(=O)(=O)c1cccc(c1)C(=O)N(Cc1cncc(N3[C@H](C)CC[C@@H]3C)n1)[C@H](COC(C)C)CO2 [Compound 1950]
HBE2 Activity at 3 μM (%) (CFTR [2]; 3 μM corrector): +++ (+++ is >60+)

Compound: Cc1cccc(C)c1-c1cc2nc(n1)NS(=O)(=O)c1cccc(c1)C(=O)N(Cc1ncc(OC3CCC3)cc1F)[C@H](COC(C)C)CO2 [Compound 1953]
HBE2 Activity at 3 μM (%) (CFTR [2]; 3 μM corrector): +++ (+++ is >60+)

Compound: Cc1cccc(C)c1-c1cc2nc(n1)NS(=O)(=O)c1cccc(c1)C(=O)N(Cc1cccc(N3CCC[C@H]3C)n1)[C@H](COC(C)C)CO2 [Compound 1954]
HBE2 Activity at 3 μM (%) (CFTR [2]; 3 μM corrector): +++ (+++ is >60+)

Results, then the compound that gave them:

activation at 10 µM (CFTR [1]; HBE assay, 10 μM): > 60% | EC50 (CFTR [1]; HBE assay, read-out: HBE EC50): < 1 µM | Emax (CFTR [1]; HBE assay): > 60% | HBE2 Activity at 3 μM (%) (CFTR [2]; 3 μM): +++ (+++ is >60+)
Compound: COCC1(CN(C)c2cncc(CN3C(=O)c4cccc(c4)S(=O)(=O)Nc4nc(cc(-c5c(C)cccc5C)n4)OC[C@H]3CC(C)(C)C)n2)CC1 [Compound 1492]

EC50 (CFTR [1]; HBE assay, read-out: HBE EC50): < 1 µM | Emax (CFTR [1]; HBE assay): > 60% | HBE2 Activity at 3 μM (%) (CFTR [2]; 3 μM): +++ (+++ is >60+)
Compound: COC[C@@H](C)N(C)c1cncc(CN2C(=O)c3cccc(c3)S(=O)(=O)Nc3nc(cc(-c4c(C)cccc4C)n3)OC[C@H]2CC(C)(C)C)n1 [Compound 1493]

activation at 10 µM (CFTR [1]; HBE assay, 10 μM): > 60% | HBE2 Activity at 3 μM (%) (CFTR [2]; 3 μM): +++ (+++ is >60+)
Compound: Cc1cccc(C)c1-c1cc2nc(n1)NS(=O)(=O)c1cccc(c1)C(=O)N(Cc1cncc(N(C)CC3CC3)n1)[C@H](CC(C)(C)C)CO2 [Compound 1507]

activation at 10 µM (CFTR [1]; HBE assay, 10 μM): > 60% | HBE2 Activity at 3 μM (%) (CFTR [2]; 3 μM): +++ (+++ is >60+)
Compound: COC(=O)N(C)c1cnc(CN2C(=O)c3cccc(c3)S(=O)(=O)Nc3nc(cc(-c4c(C)cccc4C)n3)OC[C@H]2CC(C)(C)C)nc1 [Compound 1517]

activation at 10 µM (CFTR [1]; HBE assay, 10 μM): > 60% | Emax (CFTR [2]): > 60%
Compound: Cc1cccc(C)c1-c1cc2nc(n1)NS(=O)(=O)c1cccc(c1)C(=O)N(Cc1ncc(N(C)C(=O)OC(C)C)cn1)[C@H](CC(C)(C)C)CO2 [Compound 1518]

activation at 10 µM (CFTR [1]; HBE assay, 10 μM): > 60% | EC50 (CFTR [2]): < 1 µM | Emax (CFTR [2]): > 60%
Compound: Cc1cccc(C)c1-c1cc2nc(n1)NS(=O)(=O)c1cccc(c1)C(=O)N(Cc1cncc(N(C)CC(C)C)n1)[C@H](CC(C)(C)C)CO2 [Compound 1519]

activation at 10 µM (CFTR [1]; HBE assay, 10 μM): > 60% | HBE2 Activity at 3 μM (%) (CFTR [2]; 3 μM): +++ (+++ is >60+)
Compound: CCCOc1cnc(CN2C(=O)c3cccc(c3)S(=O)(=O)Nc3nc(cc(-c4c(C)cccc4C)n3)OC[C@H]2CC(C)C)nc1 [Compound 1523]

activation at 10 µM (CFTR [1]; HBE assay, 10 μM): > 60% | HBE2 Activity at 3 μM (%) (CFTR [2]; 3 μM): +++ (+++ is >60+)
Compound: CCC(C)Oc1cnc(CN2C(=O)c3cccc(c3)S(=O)(=O)Nc3nc(cc(-c4c(C)cccc4C)n3)OC[C@H]2CCC(C)C)nc1 (stereo partly drawn) [Compound 1528]

activation at 10 µM (CFTR [1]; HBE assay, 10 μM): > 60% | HBE2 Activity at 3 μM (%) (CFTR [2]; 3 μM): +++ (+++ is >60+)
Compound: CC[C@H](C)Oc1cnc(CN2C(=O)c3cccc(c3)S(=O)(=O)Nc3nc(cc(-c4c(C)cccc4C)n3)OC[C@H]2CCC(C)(C)C)nc1 [Compound 1547]

HBE2 Activity at 3 μM (%) (CFTR [2]; 3 μM corrector): +++ (+++ is >60+)
Compound: Cc1cccc(C)c1-c1cc2nc(n1)NS(=O)(=O)c1cccc(c1)C(=O)N(Cc1ncc(N3CCC(C)(C)C3)cn1)[C@H](COC(C)C)CO2 [Compound 1955]

HBE2 Activity at 3 μM (%) (CFTR [2]; 3 μM corrector): +++ (+++ is >60+)
Compound: Cc1cccc(C)c1-c1cc2nc(n1)NS(=O)(=O)c1cccc(c1)C(=O)N(Cc1ncc(OC3CCC3)cn1)[C@H](COC(C)C)CO2 [Compound 1956]

HBE2 Activity at 3 μM (%) (CFTR [2]; 3 μM corrector): +++ (+++ is >60+)
Compound: Cc1cccc(C)c1-c1cc2nc(n1)NS(=O)(=O)c1cccc(c1)C(=O)N(Cc1ncc(OC(C)C)cn1)[C@H](COC(C)C)CO2 [Compound 1957]
